In patent US20240067631A1, “PYRAZOLE DERIVATIVES USEFUL AS NAMPT MODULATORS” (Cytokinetics, Inc., priority 2020, published 2024):

What was measured:
human NAMPT = human NAMPT (Homo sapiens (Human), UniProt P43490); test: Human recombinant enzyme assay (NMN fluorescence biochemical assay); settings: 6 nM human NAMPT, 60 min; for AC1.4 Human: concentration of compound that generates 40% higher activity over basal; for EC50: concentration that gives half-maximal activation
In short: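 Recombinant human NAMPT (6 nM) with 2.5 mM ATP, […] PRPP and […] nicotinamide in HEPES pH 7.2 with DTT, CHAPS, NaCl, MgCl2; 60 min at ambient temperature. NMN derivatised with acetophenone/KOH/formic acid, fluorescence read at 355/460 nm. AC1.4 (40% above basal) and EC50 reported.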

endogenous NAMPT = endogenous NAMPT (Homo sapiens (Human), UniProt P43490); test: Cellular NAD+ modulation assay in SH-SY5Y cells with doxorubicin; assay type: cell-based; settings: Neuroblastoma SH-SY5Y cells, 40 hours, cellular NAD levels; for EC50: read-out: SY5Y (human) NAD Cell Dox EC50
Chain of endogenous NAMPT (P43490 whole entry): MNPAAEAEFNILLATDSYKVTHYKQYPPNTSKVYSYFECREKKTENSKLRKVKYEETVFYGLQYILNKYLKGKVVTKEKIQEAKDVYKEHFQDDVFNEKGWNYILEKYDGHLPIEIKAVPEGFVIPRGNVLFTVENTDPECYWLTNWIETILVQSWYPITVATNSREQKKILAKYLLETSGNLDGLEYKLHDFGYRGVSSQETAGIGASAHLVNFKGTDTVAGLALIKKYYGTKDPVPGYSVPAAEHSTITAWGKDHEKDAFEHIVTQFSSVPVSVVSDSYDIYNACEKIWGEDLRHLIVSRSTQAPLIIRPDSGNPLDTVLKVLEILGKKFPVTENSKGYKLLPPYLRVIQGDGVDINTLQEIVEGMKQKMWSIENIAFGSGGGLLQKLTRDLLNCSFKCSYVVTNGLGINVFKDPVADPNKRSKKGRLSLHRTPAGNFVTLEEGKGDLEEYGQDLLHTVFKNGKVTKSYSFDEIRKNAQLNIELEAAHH
Experimental: The compounds described herein were also assayed for their ability to stimulate the endogenous NAMPT in a native cellular environment in the cellular NAD+ modulation assay, which measures the ability of the compound to modulate cellular NAD levels. Increased levels of NAD are expected by compounds that permeate the cells and activate the catalytic activity of the endogenous NAMPT.
Neuroblastoma SH-SY5Y cells were grown in 1:1 mixture of Eagle's Minimum Essential Medium and F12 Medium, along with 10% fetal bovine serum, in a humidified incubator with an atmosphere of 95% air and 5% CO2 at 37° C. The assays were initiated by plating 20 μL of SH-SY5Y cells in culture medium with 0.1% fetal bovine serum, at a density of 5000 cells per well to a 384-well Corning™ BioCoat™ Poly-D-Lysine Multiwell Plates. The plates were incubated in the 37° C. incubators for a period of 5 hours. Compounds in DMSO were added to the plates in a volume of 120 nL using the Labcyte Echo Liquid Handlers. 5 μL of a 1.5 uM Doxorubicin solution in assay medium is added to each well. The plates are then incubated for 40 hours. 30 μL of a readout-solution containing 0.2 U/mL Diaphorase enzyme, 40 uM resazurin, 10 uM FMN, 0.8 U/mL Alcohol dehydrogenase, 3% ethanol, 0.4 mg/mL bovine serum albumin, 0.2% Triton X-100 in 100 mM Tris-HCl, 30 mM EDTA, pH 8.4. The plates were read for fluorescence (Excitation/Emission=540 nm/590 nm) using an EnVision plate reader after 60 mins of incubation at ambient temperature.

Chain of human NAMPT (P43490 whole entry): as above

SMILES	AC1.4 Human (human NAMPT)	EC50 (human NAMPT)	SY5Y (human) NAD Cell Dox AC0.3 (endogenous NAMPT)	EC50 (endogenous NAMPT)
Cc1nc(C(=O)N[C@H](C)c2cccs2)nc(NCCc2cn[nH]c2)c1C [Compound 14, (R)-4-((2-(1H-pyrazol-4-yl)ethyl)amino)-5,6-dimethyl-N-(1-(thiophen-2-yl)ethyl)pyrimidine-2-carboxamide]	0.054 µM	156 nM	0.28 µM	480 nM
Cc1nc(C(=O)N2CCC[C@@H]2c2cccc(F)c2)nc(NCCc2cn[nH]c2)c1C [Compound 15, (R)-(4-((2-(1H-pyrazol-4-yl)ethyl)amino)-5,6-dimethylpyrimidin-2-yl)(2-(3-fluorophenyl)pyrrolidin-1-yl)methanone]	0.051 µM	390 nM	0.26 µM	190 nM
Cc1nc(C(=O)NC(c2cccc(F)c2)c2nccn2C)nc(NCCc2cn[nH]c2)c1C (centres unmarked) [Compound 20, 4-((2-(1H-pyrazol-4-yl)ethyl)amino)-N-((3-fluorophenyl)(1-methyl-1H-imidazol-2-yl)methyl)-5,6-dimethylpyrimidine-2-carboxamide]	0.062 µM	848 nM	2.97 µM	8790 nM
Cc1nc(C(=O)NC(c2cccc(F)c2)c2ncco2)nc(NCCc2cn[nH]c2)c1C (centres unmarked) [Compound 23, 4-((2-(1H-pyrazol-4-yl)ethyl)amino)-N-((3-fluorophenyl)(oxazol-2-yl)methyl)-5,6-dimethylpyrimidine-2-carboxamide]	0.0955 µM	3240 nM	1.57 µM	3250 nM
Cc1nc(C(=O)N(C)C(c2cccc(F)c2)c2nccn2C)nc(NCCc2cn[nH]c2)c1C (centres unmarked) [Compound 5, 4-((2-(1H-pyrazol-4-yl)ethyl)amino)-N-((3-flurophenyl)(1-methyl-1H-imidazol-2-yl)methyl)-N,5,6-trimethylpyrimidine-2-carboxamide]	0.0235 µM	449 nM	2.68 µM	1760 nM
Cc1nc(C(=O)N[C@H](C)c2ccccc2)nc(NCCc2cn[nH]c2)c1C [Compound 17, (R)-4-((2-(1H-pyrazol-4-yl)ethyl)amino)-5,6-dimethyl-N-(1-phenylethyl)pyrimidine-2-carboxamide]	0.0715 µM	549 nM	0.24 µM	440 nM

The next lines start with the values.

AC1.4 Human (human NAMPT)	EC50 (human NAMPT)	SY5Y (human) NAD Cell Dox AC0.3 (endogenous NAMPT)	EC50 (endogenous NAMPT)	SMILES
<0.003 µM		0.02 µM		Cc1nc(C(=O)N[C@H](C)c2cccc(F)n2)nc(NCCc2cn[nH]c2)c1Cl [Compound 147, (R)-4-((2-(1H-pyrazol-4-yl)ethyl)amino)-5-chloro-N-(1-(6-fluoropyridin-2-yl)ethyl)-6-methylpyrimidine-2-carboxamide]
0.1215 µM	429 nM	0.26 µM	720 nM	Cc1nc(C(=O)N[C@H](C)c2ccccc2Cl)nc(NCCc2cn[nH]c2)c1C [Compound 26, (R)-4-((2-(1H-pyrazol-4-yl)ethyl)amino)-N-(1-(2-chlorophenyl)ethyl)-5,6-dimethylpyrimidine-2-carboxamide]
		0.17 µM		C[C@@H](NC(=O)c1cc(Br)cc(NCCc2cn[nH]c2)n1)c1cccc(F)n1 [Compound 151, (R)-6-((2-(1H-pyrazol-4-yl)ethyl)amino)-4-bromo-N-(1-(6-fluoropyridin-2-yl)ethyl)picolinamide]
0.046 µM	520 nM	0.2 µM	470 nM	Cc1nc(C(=O)N[C@@H](C)c2cccc(F)c2)nc(NCCc2cn[nH]c2)c1C [Compound 10, (S)-4-((2-(1H-pyrazol-4-yl)ethyl)amino)-N-(1-(3-fluorophenyl)ethyl)-5,6-dimethylpyrimidine-2-carboxamide]
